ChEMBL document CHEMBL1201862, “PubChem BioAssay data set” (2004)
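Following 48 hours of exposure in 96-well plates, responses at five concentrations were used to interpolate endpoints linearly. The concentration for 50% growth inhibition is given as GI50.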 Active and inactive are the calls of the source. Cut-off read from the data, not from the text of the source: active = GI50 up to about 1.1 µM and inactive = higher.

How the values were obtained:
Assay in all cases: inhibition of tumour cell growth, NCI panel, 48 h
MDA-MB-231 = system: MDA-MB-231
RXF 393 = system: RXF 393
RPMI-8226 = system: RPMI-8226
NCI-H226 = system: NCI-H226
SW-620 = system: SW-620
DU-145 = system: DU-145
COLO 205 = system: COLO 205
UACC-257 = system: UACC-257
NCI/ADR-RES = system: NCI/ADR-RES
SN12C = system: SN12C
T47D = system: T47D
K562 = system: K562
HCT-116 = system: HCT-116
Hs-578T = system: Hs-578T
CAKI-1 = system: CAKI-1
OVCAR-4 = system: OVCAR-4
ACHN = system: ACHN
NCI-H522 = system: NCI-H522
TK-10 = system: TK-10
MDA-N = system: MDA-N

Row | SMILES | GI50 (MDA-MB-231) | GI50 (RXF 393) | GI50 (RPMI-8226) | GI50 (NCI-H226) | GI50 (SW-620) | GI50 (DU-145) | GI50 (COLO 205) | GI50 (UACC-257) | GI50 (NCI/ADR-RES) | GI50 (SN12C) | GI50 (T47D) | GI50 (K562) | GI50 (HCT-116) | GI50 (Hs-578T) | GI50 (CAKI-1) | GI50 (OVCAR-4) | GI50 (ACHN) | GI50 (NCI-H522) | GI50 (TK-10) | GI50 (MDA-N)
1 | Cc1cccc2c(N)c3cccc(C(=O)NCCCNCCN)c3nc12 | 0.593 µM (active) | 3.4 µM (inactive) | 7.08 µM (inactive) | 0.311 µM (active) | 8.43 µM (inactive) | 3.59 µM (inactive) | 6.37 µM (inactive) | 16.6 µM (inactive) | 25.9 µM (inactive) | 0.121 µM (active) | 7.85 µM (inactive) | 12.9 µM (inactive) | 7.5 µM (inactive) | 0.23 µM (active) | 7.91 µM (inactive) | 1.87 µM (inactive) | 10.5 µM (inactive) | < 0.01 µM (active) | 17.1 µM (inactive) | 13.7 µM (inactive)
2 | Brc1ccc2[nH]cc(-c3csc(-c4c[nH]c5ccc(Br)cc45)n3)c2c1 | 1.66 µM (inactive) | 2.14 µM (inactive) | 1.64 µM (inactive) | 2.1 µM (inactive) | 1.84 µM (inactive) | 2.52 µM (inactive) | 1.61 µM (inactive) | 2.92 µM (inactive) | 2.21 µM (inactive) | 2.83 µM (inactive) | 2.44 µM (inactive) | 1.77 µM (inactive) | 1.68 µM (inactive) | 3.79 µM (inactive) | 1.95 µM (inactive) | 2.26 µM (inactive) | 1.93 µM (inactive) | 1.66 µM (inactive) | 2.69 µM (inactive) | 2.25 µM (inactive)
3 | Cc1ccc2c(c1)C(=O)C(C1OC(=O)c3ccccc31)C2 (stereo not given) | > 100 µM (inactive) | 43.8 µM (inactive) | 45.8 µM (inactive) | 30.5 µM (inactive) | > 100 µM (inactive) | > 100 µM (inactive) | 56.2 µM (inactive) | > 100 µM (inactive) | 33.7 µM (inactive) | 92.7 µM (inactive) | 76.9 µM (inactive) | 97.3 µM (inactive) | 70.3 µM (inactive) | 69.5 µM (inactive) | > 100 µM (inactive) | > 100 µM (inactive) | 83.8 µM (inactive) | 83.4 µM (inactive) | 38.5 µM (inactive) | > 100 µM (inactive)
4 | O=C(NNC(=S)Nc1ccccc1)c1cc(-c2ccccc2)nc2ccccc12 | 20.1 µM (inactive) | 19 µM (inactive) | 6.56 µM (inactive) | 23.6 µM (inactive) | 18.7 µM (inactive) | 17 µM (inactive) | 15.7 µM (inactive) | 19.1 µM (inactive) | 17.4 µM (inactive) | 20.8 µM (inactive) | 7.4 µM (inactive) | 17.4 µM (inactive) | 14.4 µM (inactive) | 25.1 µM (inactive) | 30.1 µM (inactive) | 17.3 µM (inactive) | 27.5 µM (inactive) | 18.1 µM (inactive) | 22 µM (inactive) | 18.2 µM (inactive)
5 | C=CCSC1=N/C(=C\c2ccccc2)C(=O)N1CC=C | 39.9 µM (inactive) | 20.2 µM (inactive) | 24.7 µM (inactive) | 28.5 µM (inactive) | 49.7 µM (inactive) | > 86.5 µM (inactive) | 41.6 µM (inactive) | 33.2 µM (inactive) | 45.1 µM (inactive) | 36.2 µM (inactive) | 29.2 µM (inactive) | 3.48 µM (inactive) | 29.8 µM (inactive) | 43 µM (inactive) | 60.5 µM (inactive) | 40.6 µM (inactive) | 41.8 µM (inactive) | 31.2 µM (inactive) | > 74.6 µM (inactive) | 30.3 µM (inactive)
6 | O=C1CSC2=NCC3(NN12)c1ccccc1-c1ccccc13 | > 10 µM (inactive) | > 10 µM (inactive) | > 10 µM (inactive) | > 10 µM (inactive) | > 10 µM (inactive) | > 10 µM (inactive) | > 10 µM (inactive) | > 10 µM (inactive) | > 10 µM (inactive) | > 10 µM (inactive) | > 10 µM (inactive) | > 10 µM (inactive) | > 10 µM (inactive) | > 10 µM (inactive) | > 10 µM (inactive) | > 10 µM (inactive) | > 10 µM (inactive) | > 10 µM (inactive) | > 10 µM (inactive) | > 10 µM (inactive)
7 | Nc1nc(N)c2cc(Sc3ccc4ccccc4c3)ccc2n1 | 2.54 µM (inactive) | 3.32 µM (inactive) | 2.14 µM (inactive) | 10.7 µM (inactive) | 0.729 µM (active) | 5.79 µM (inactive) | 1.63 µM (inactive) | 1.58 µM (inactive) | 1.07 µM (active) | 1.03 µM (active) | 2.12 µM (inactive) | 0.211 µM (active) | 1.17 µM (inactive) | 11.9 µM (inactive) | 4.52 µM (inactive) | 4.18 µM (inactive) | 0.509 µM (active) | 2.2 µM (inactive) | 3.1 µM (inactive) | 0.733 µM (active)
